These results are taken from ChEMBL document CHEMBL2401661, “Cyanidin, a natural flavonoid, is an agonistic ligand for liver X receptor alpha and beta and reduces cellular lipid accumulation in macrophages and hepatocytes” (Bioorg Med Chem Lett, 2013).

Activity calls are given as the source filed them. The rule behind the calls is not given here.

The target in experiment [1] is T1, Oxysterols receptor LXR-alpha (Homo sapiens) (UniProt Q13133).
T1 sequence (whole entry): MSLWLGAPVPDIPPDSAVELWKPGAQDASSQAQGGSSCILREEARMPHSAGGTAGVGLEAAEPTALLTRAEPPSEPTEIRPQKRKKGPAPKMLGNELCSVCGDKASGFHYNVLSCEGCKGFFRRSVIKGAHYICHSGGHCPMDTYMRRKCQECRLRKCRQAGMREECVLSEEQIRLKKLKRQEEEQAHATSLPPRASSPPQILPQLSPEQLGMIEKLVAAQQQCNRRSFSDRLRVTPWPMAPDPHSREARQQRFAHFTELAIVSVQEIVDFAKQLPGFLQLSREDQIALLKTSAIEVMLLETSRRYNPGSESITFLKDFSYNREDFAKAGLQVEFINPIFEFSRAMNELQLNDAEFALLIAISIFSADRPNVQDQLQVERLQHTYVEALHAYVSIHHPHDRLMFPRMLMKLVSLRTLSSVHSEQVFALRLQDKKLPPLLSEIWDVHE
As to the kind of experiment: (§1) Binding affinity to human LXRalpha-LBD by surface plasmon resonance. (In general: SPR reads the build-up and loss of mass on a sensor chip optically.)

The target of experiment [2] is T1, Oxysterols receptor LXR-alpha (Homo sapiens). As to the kind of experiment: (§2) Agonist activity at human LXRalpha-LBD assessed as recruitment of co-activator peptide after 2 hrs by TR-FRET assay. A general note: In TR-FRET formats the signal depends on donor and acceptor labels being close together.
For experiment [3], the target named is T2, Oxysterols receptor LXR-beta (Homo sapiens, UniProt P55055). As to the kind of experiment: Binding affinity to human LXRbeta-LBD by surface plasmon resonance.
T2 sequence (P55055 whole entry, the tested form may be a part): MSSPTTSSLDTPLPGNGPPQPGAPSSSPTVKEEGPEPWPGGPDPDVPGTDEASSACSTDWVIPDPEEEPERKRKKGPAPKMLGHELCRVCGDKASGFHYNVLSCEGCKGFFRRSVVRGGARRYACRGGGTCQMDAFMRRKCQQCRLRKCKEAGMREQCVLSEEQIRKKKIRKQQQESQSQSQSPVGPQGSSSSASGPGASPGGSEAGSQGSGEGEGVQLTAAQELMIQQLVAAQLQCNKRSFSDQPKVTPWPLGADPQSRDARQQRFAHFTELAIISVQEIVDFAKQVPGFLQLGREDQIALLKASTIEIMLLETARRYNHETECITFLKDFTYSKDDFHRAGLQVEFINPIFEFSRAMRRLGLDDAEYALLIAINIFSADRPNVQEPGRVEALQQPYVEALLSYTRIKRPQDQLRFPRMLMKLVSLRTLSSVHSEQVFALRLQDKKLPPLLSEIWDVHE
In experiment [4] the target is T2, Oxysterols receptor LXR-beta. As to the kind of experiment: Agonist activity at human LXRbeta-LBD assessed as recruitment of co-activator peptide after 2 hrs by TR-FRET assay.
The target of experiment [5] is T1, Oxysterols receptor LXR-alpha (Homo sapiens). Briefly: Agonist activity at LXRalpha (unknown origin) expressed in CHOK1 cells assessed as induction of transactivation activity at 100 uM after 24 hrs by luciferase reporter gene assay relative to control. The note with it: CHO-K1. It counts as cell-based. For orientation: Reporter assays use an easily measured gene product as a stand-in for the process of interest.

Experiment [6] deals with T3, Oxysterols receptor LXR-alpha (Homo sapiens, UniProt Q13133).
T3 sequence (Q13133 whole entry): T1 sequence (whole entry)
The description is as §1.

The target in experiment [7] is T4, Liver X receptor (Homo sapiens) (UniProt Q13133+P55055). Briefly: Agonist activity at LXR in human THP1 cells assessed as reduction in cellular cholesterol after 24 hrs. It counts as cell-based. The note with it: THP-1.
T4 sequence (P55055 whole entry, looked up, one chain of several): as the sequence (P55055 whole entry, the tested form may be a part) above
Experiment [8] addresses T3, Oxysterols receptor LXR-alpha. The experiment is described as §2.
Experiment [9] addresses T4, Liver X receptor (Homo sapiens). As to the kind of experiment: Agonist activity at LXR in human HepG2 cells assessed as upregulation of SREBP1C expression at 100 uM after 24 hrs by RT-qPCR analysis relative to control. It counts as cell-based.
Experiment [10] has the same target. Briefly: Agonist activity at LXR in human HepG2 cells assessed as upregulation of ABCG5 expression at 100 uM after 24 hrs by RT-qPCR analysis relative to control. It counts as cell-based.
Experiment [11] has the same target. As to the kind of experiment: Agonist activity at LXR in human THP1 cells assessed as reduction in cellular triglyceride at 100 uM after 24 hrs. It counts as cell-based. The arrangement: scale not given: the % may be the effect or the level left. The note with it: THP-1.
Experiment [12] has the same target. As to the kind of experiment: Agonist activity at LXR in human HepG2 cells assessed as reduction in cellular cholesterol after 24 hrs. It counts as cell-based.
The target is the same in experiment [13]. As to the kind of experiment: Agonist activity at LXR in human HepG2 cells assessed as reduction in cellular triglyceride at 100 uM after 24 hrs. It counts as cell-based. The arrangement: scale not given: the % may be the effect or the level left.
The target is the same in experiment [14]. As to the kind of experiment: Agonist activity at LXR in human HepG2 cells assessed as upregulation of ABCA1 expression at 100 uM after 24 hrs by RT-qPCR analysis relative to control. It counts as cell-based.
Experiment [15] shares this target. Briefly: Agonist activity at LXR in human HepG2 cells assessed as reduction in cellular triglyceride after 24 hrs. It counts as cell-based.
Experiment [16] addresses T2, Oxysterols receptor LXR-beta. As to the kind of experiment: Agonist activity at LXRbeta (unknown origin) expressed in CHOK1 cells assessed as induction of transactivation activity at 100 uM after 24 hrs by luciferase reporter gene assay relative to control. It counts as cell-based. The note with it: CHO-K1.
The target in experiment [17] is T1, Oxysterols receptor LXR-alpha (Homo sapiens). Briefly: Induction of LXRalpha transcription in human HepG2 cells at 50 to 100 uM after 24 hrs by RT-qPCR analysis relative to control. It counts as cell-based.
In experiment [18] the target is T2, Oxysterols receptor LXR-beta. Briefly: Agonist activity at LXRbeta in human HepG2 cells assessed as LXRbeta transcription at 50 to 100 uM after 24 hrs by RT-qPCR analysis. It counts as cell-based.
Experiment [19] has as its target T1, Oxysterols receptor LXR-alpha (Homo sapiens). Briefly: Agonist activity at LXRalpha (unknown origin) expressed in CHOK1 cells assessed as induction of transactivation activity at 50 uM after 24 hrs by luciferase reporter gene assay relative to control. It counts as cell-based. The note with it: CHO-K1.
Experiment [20] deals with T4, Liver X receptor (Homo sapiens). As to the kind of experiment: Agonist activity at LXR in human THP1 cells assessed as reduction in cellular triglyceride after 24 hrs. It counts as cell-based. Conditions: THP-1.

Usually Kd stands for the free concentration of one partner at which half of the binding sites on the other are occupied at equilibrium, for simple one-to-one binding. By EC50 is commonly meant the concentration at which the effect is half-maximal.

Turning to `O=Cc1c(O)cc(O)cc1O`, the outcome in experiment [1], in [2], in [3] and in experiment [4] was inactive.
As for `Oc1cc(O)c2cc(O)c(-c3ccc(O)c(O)c3)[o+]c2c1` [CYANIDIN], the Activity was 59% in [5]; “Dose-dependent effect” in experiment [7]; -21% in experiment [11]; “Dose-dependent effect” in experiment [12]; -23% in experiment [13]; “Dose-dependent effect” in [15]. The Activity was 33% in experiment [16], 32% in experiment [19] and “Dose-dependent effect” in experiment [20]. Besides, the Kd in [6] amounted to 2.2 µM; in experiment [3], 73.2 µM. Besides, the EC50 in [8] was found to be 3.5 µM; in experiment [4], 125 µM. For the same compound, the fold change (FC) came out at 3.6 in [9], 1.4 in experiment [10], 2.5 in experiment [14] and 1.5 in experiment [17]. For the same compound, in experiment [18], the result was inactive.
As to `CC(C)CC[C@@H](O)[C@@H](C)[C@H]1CC[C@H]2[C@@H]3CC=C4C[C@@H](O)CC[C@]4(C)[C@H]3CC[C@]12C` [22(R)-HYDROXYCHOLESTEROL], in experiment [8], the EC50 was determined as 1 µM.
For `O=C(O)c1ccc(O)c(O)c1`, the result in experiment [1], in experiment [2], in [3] and in experiment [4] was inactive.
